Results on 1 molecule are retold here after paper PMC5574463, “Improving ethanol yield in acetate-reducing Saccharomyces cerevisiae by cofactor engineering of 6-phosphogluconate dehydrogenase and deletion of ALD6” (Microbial Cell Factories, 2016).

What all share (experiment): spectrophotometric NADH formation at […] nm, cell extract
Common to all, as to format: biochemical
Holding throughout (conditions): 0.4 mM NAD+, 5 mM 6-phosphogluconate, 5 mM MgCl2, 50 mM Tris-HCl pH 8.0, 30 C

Assay [1] deals with T1, B. japonicum 6pgdh (NAD+-dependent 6-phosphogluconate dehydrogenase) (Bradyrhizobium diazoefficiens, UniProt Q89FE2).
T1 construct: gene blr6759; codon-optimized gene, TPI1 promoter, integrated at GND1 locus of S. cerevisiae gnd1 gnd2 deletion strain IMX706; cell extract
T1 sequence (Q89FE2 entry or part of it): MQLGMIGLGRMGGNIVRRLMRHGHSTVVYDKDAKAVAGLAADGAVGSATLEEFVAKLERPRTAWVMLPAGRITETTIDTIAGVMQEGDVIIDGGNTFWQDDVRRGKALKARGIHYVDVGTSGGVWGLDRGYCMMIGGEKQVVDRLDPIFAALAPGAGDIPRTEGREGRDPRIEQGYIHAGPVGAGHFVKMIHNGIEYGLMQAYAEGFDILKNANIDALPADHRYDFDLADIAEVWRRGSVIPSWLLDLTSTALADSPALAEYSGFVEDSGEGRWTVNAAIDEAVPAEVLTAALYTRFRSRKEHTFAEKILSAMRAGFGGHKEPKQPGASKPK

Assay [2] has as its target T2, G. oxydans gox1705 (NAD+-preferring 6-phosphogluconate dehydrogenase) (Gluconobacter oxydans, UniProt G5EBD7).
T2 construct: codon-optimized gene, TPI1 promoter, integrated at GND1 locus of S. cerevisiae gnd1 gnd2 deletion strain IMX707; cell extract

Assay [3] has as its target T3, GndA (M. flagellatus NAD+-dependent 6-phosphogluconate dehydrogenase, gndA) (Methylobacillus flagellatus, UniProt Q9L9P8).
T3 construct: codon-optimized gene, TPI1 promoter, integrated at GND1 locus of S. cerevisiae gnd1 gnd2 deletion strain IMX705; cell extract

T2 sequence (G5EBD7 whole entry): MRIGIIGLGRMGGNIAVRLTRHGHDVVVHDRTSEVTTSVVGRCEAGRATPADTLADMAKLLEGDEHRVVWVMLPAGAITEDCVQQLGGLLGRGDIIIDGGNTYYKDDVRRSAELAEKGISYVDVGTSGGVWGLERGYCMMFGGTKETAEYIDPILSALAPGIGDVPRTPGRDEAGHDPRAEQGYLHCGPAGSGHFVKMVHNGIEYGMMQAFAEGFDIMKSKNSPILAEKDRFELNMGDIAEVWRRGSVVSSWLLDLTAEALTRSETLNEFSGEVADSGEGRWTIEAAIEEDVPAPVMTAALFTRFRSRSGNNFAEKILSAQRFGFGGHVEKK
T3 sequence (Q9L9P8 entry or part of it): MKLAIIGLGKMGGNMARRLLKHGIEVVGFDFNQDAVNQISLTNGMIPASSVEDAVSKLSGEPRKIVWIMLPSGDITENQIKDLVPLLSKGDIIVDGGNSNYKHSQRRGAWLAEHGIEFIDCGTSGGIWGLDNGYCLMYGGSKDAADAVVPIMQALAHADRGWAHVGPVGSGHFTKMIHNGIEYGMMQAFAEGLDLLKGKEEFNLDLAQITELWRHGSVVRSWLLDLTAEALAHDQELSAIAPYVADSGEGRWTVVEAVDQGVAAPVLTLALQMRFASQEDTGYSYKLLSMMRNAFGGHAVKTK

On to `NC(=O)c1ccc[n+]([C@@H]2O[C@H](COP(=O)(O)OP(=O)(O)OC[C@H]3O[C@@H](n4cnc5c(N)ncnc54)[C@H](O)[C@@H]3O)[C@@H](O)[C@H]2O)c1` [NAD^+], for which the “spectrophotometric NADH formation at 340 nm, cell extract” value is reported as “expressing bacterial 6-PGDH genes showed high specific activities with NAD^+ as the electron acceptor” in assay [1]; “expressing bacterial 6-PGDH genes showed high specific activities with NAD^+ as the electron acceptor” in assay [2]; “expressing gndA from M. flagellatus, showed the highest in vitro NAD^+-dependent 6-PGDH activity” in assay [3].
